Data on 7 molecules can be found in patent US4535080A, “Derivatives of 2-piperazino-pyrimidine, methods for their preparation and their utilization as drugs or intermediates for drugs” (Pharmuka Laboratoires, priority 1981, dated 1985).

Like-named read-outs stand apart in the source and are kept apart here.

Assay [1] has as its system alpha adrenergic receptors. Particulars: background statement; cited from earlier work.
The subject of assay [2] is alpha-2 adrenergic receptors. The settings on record: background statement; cited from earlier work.
Assay [3] has as its target T1, receptor sites of clonidine (rat cortex membranes) (Rattus norvegicus, UniProt P22909).
T1 construct: measured on rat cortex membranes; from tissue; host or cells: rat cortex membranes
T1 sequence (P22909 1-465): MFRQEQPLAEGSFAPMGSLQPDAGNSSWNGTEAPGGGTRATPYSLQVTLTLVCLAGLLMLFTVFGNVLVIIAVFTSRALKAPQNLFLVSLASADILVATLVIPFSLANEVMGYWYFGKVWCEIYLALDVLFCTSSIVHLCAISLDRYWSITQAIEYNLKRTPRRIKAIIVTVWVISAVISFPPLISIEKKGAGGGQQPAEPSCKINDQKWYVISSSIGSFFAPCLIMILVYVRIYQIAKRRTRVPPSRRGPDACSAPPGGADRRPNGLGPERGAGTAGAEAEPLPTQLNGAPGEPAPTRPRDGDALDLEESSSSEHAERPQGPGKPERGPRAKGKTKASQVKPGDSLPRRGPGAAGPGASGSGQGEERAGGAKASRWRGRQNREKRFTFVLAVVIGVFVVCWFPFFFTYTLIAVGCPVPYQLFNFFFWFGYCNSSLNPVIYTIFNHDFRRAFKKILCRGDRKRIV
Nature of the assay: Affinity for the receptor sites of clonidine (3H clonidine binding, rat cortex membranes).

As to `Clc1cccc(Cl)c1N=C1NCCN1` [Clonidine, clonidine], in assay [1], the “behaviour towards alpha adrenergic receptors” value is given as “behaves as an agonist towards alpha adrenergic receptors”. Also, the “affinity for alpha-2 receptors” value in assay [2] is reported as “strong affinity”. The Ki is the equilibrium dissociation constant of an inhibitor or competing ligand from its target. In assay [3], `CN1CCN(c2nc(N)c(Cl)c(Cl)n2)CC1` [Example 8, 2-N-methylpiperazino-4-amino-5,6-dichloropyrimidine] yielded a Ki of 51 nM.

For `CNc1nc(N2CCN(C)CC2)nc(Cl)c1Cl` [Example 9, 2-N-methylpiperazino-4-methylamino-5,6-dichloro-pyrimidine], in assay [3], the affinity corresponds to a Ki of 44 nM.

Regarding `CC(C)Nc1nc(N2CCN(C)CC2)nc(Cl)c1Cl` [Example 10, 2-N-methylpiperazino-4-isopropylamino-5,6-dichloropyrimidine], in assay [3], the Ki amounted to 5 nM. In the case of `COc1c(Cl)nc(N2CCN(C)CC2)nc1NC(C)C` [Example 12, 2-N-methylpiperazino-4-isopropylamino-5-methoxy-6-chloropyrimidine], the Ki in assay [3] (read-out: Ki) was determined as 51 nM.

`Cc1c(Cl)nc(N2CCN(C)CC2)nc1NC(C)C` [Example 21, 2-N-methylpiperazino-4-isopropylamino-5-methyl-6-chloropyrimidine] yielded an inhibitory constant (Ki) in assay [3] of 16 nM. As for `CCc1c(Cl)nc(N2CCN(C)CC2)nc1NC(C)C` [Example 25, 2-N-methylpiperazino-4-isopropylamino-5-ethyl-6-chloropyrimidine], in assay [3] (read-out: Ki), the Ki was determined as 51 nM.
